The text below walks through data of ChEMBL document CHEMBL1201862, “PubChem BioAssay data set” (2004).

Some test systems named below: HCT-116; HL-60; HOP-92; HT-29; Hs-578T; IGROV-1; MCF7; Malme-3M; NCI-H226; NCI/ADR-RES; OVCAR-3; OVCAR-4; OVCAR-5; OVCAR-8; SF-295; SK-MEL-28; SN12C; TK-10; UACC-257.
Assay in all cases: NCI-60 cell line screen, 48 h

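Cells were grown in 96-well plates and exposed to each compound for 48 hours at five concentrations; endpoints were interpolated linearly between bracketing concentrations, or set to the highest concentration if not reached. GI50 = concentration required for 50% inhibition of growth.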 Active and inactive are the calls of the source. Cut-off read from the data, not from the text of the source: active = GI50 up to about 1.1 µM and inactive = higher. Where only a bound is given, the exact number is not on record here.

As to `OC1(c2ccc3ccccc3c2)c2c(c3ccccc3c3ccccc23)C2=NCCN21` (stereo not drawn), the GI50 in the test with HCT-116 is 2.88 µM (inactive); with HL-60, 6.46 µM (inactive); in the test on HOP-92, 7.18 µM (inactive); in the test with HT-29, 2.8 µM (inactive); with Hs-578T it was 6.14 µM (inactive); with IGROV-1 it was 3.85 µM (inactive). Besides, the GI50 is 3.48 µM (inactive) in the test on MCF7; 10.4 µM (inactive) with Malme-3M; 34.5 µM (inactive) in the test with NCI-H226; 2.13 µM (inactive) in the test with NCI/ADR-RES; 7.21 µM (inactive) with OVCAR-3; 3.55 µM (inactive) in the test on OVCAR-4. Further, the GI50 in the test with OVCAR-5 is 7.78 µM (inactive); in the test on OVCAR-8, 4.44 µM (inactive); in the test on SF-295, 3.09 µM (inactive); in the test on SK-MEL-28 it was 2.12 µM (inactive); with SN12C it was 9.2 µM (inactive); with TK-10 it was 7.98 µM (inactive). Also, in the test on UACC-257, the GI50 is 18.5 µM (inactive).
Regarding `COc1cc2c(c(OC)c1OC)-c1ccc(SC)c(=O)cc1C(NC(=O)c1ccccc1)CC2` (stereo not drawn), the GI50 in the test with HCT-116 was < 0.01 µM (active); in the test on HL-60 it was < 0.01 µM (active); with HOP-92, 0.0119 µM (active); with HT-29, < 0.01 µM (active); in the test with Hs-578T it was < 0.01 µM (active); with IGROV-1 it was < 0.01 µM (active). Moreover, the GI50 is < 0.01 µM (active) with MCF7; < 0.01 µM (active) in the test with Malme-3M; 0.0465 µM (active) with NCI-H226; 0.0103 µM (active) with NCI/ADR-RES; < 0.01 µM (active) in the test with OVCAR-3; 1.45 µM (inactive) in the test on OVCAR-4. Moreover, the GI50 is 0.303 µM (active) in the test with OVCAR-5; < 0.01 µM (active) with OVCAR-8; < 0.01 µM (active) in the test on SF-295; 0.305 µM (active) in the test on SK-MEL-28; < 0.01 µM (active) in the test on SN12C; 0.24 µM (active) in the test with TK-10. Moreover, the GI50 with UACC-257 was 0.526 µM (active).
For the molecule `Cc1nnc(S(=O)(=O)c2ccc(/N=N/c3c(N)nc(N)nc3N)cc2)s1`, the GI50 was > 100 µM (inactive) in the test with HCT-116; 33.4 µM (inactive) with HL-60; > 100 µM (inactive) with HOP-92; > 100 µM (inactive) with HT-29; > 100 µM (inactive) in the test with Hs-578T; > 100 µM (inactive) in the test with IGROV-1. In addition, the GI50 in the test with MCF7, in the test with Malme-3M, with NCI-H226, with NCI/ADR-RES, with OVCAR-3 and in the test with OVCAR-4 was > 100 µM (inactive) throughout. Besides, the GI50 in the test on OVCAR-5, with OVCAR-8, with SF-295, with SK-MEL-28, in the test with SN12C and in the test on TK-10 was > 100 µM (inactive) throughout. In addition, in the test with UACC-257, the GI50 was > 100 µM (inactive).
In the case of `CC(C)=CCCC(C)C1=C(O)C(=O)C(C)=CC1=O` (stereo not drawn), the GI50 with HCT-116 is 4.71 µM (inactive); in the test with HL-60, 0.332 µM (active); in the test with HOP-92, 1.73 µM (inactive); in the test with HT-29, 16.3 µM (inactive); in the test on Hs-578T, 25.1 µM (inactive); in the test with IGROV-1, 15.6 µM (inactive). The GI50 in the test on MCF7 is 5.74 µM (inactive); in the test on Malme-3M, 9.29 µM (inactive); in the test on NCI-H226 it was 20.8 µM (inactive); in the test on NCI/ADR-RES, 12.2 µM (inactive); in the test with OVCAR-3, 7.53 µM (inactive); in the test on OVCAR-4, 6.41 µM (inactive). For the same molecule, the GI50 with OVCAR-5 is 16.4 µM (inactive); in the test on OVCAR-8 it was 18.1 µM (inactive); in the test with SF-295, 34 µM (inactive); in the test with SK-MEL-28 it was 4.24 µM (inactive); in the test with SN12C it was 14.7 µM (inactive); in the test with TK-10 it was 7.73 µM (inactive). Further, the GI50 in the test on UACC-257 is 9.12 µM (inactive).
As for `Cc1cc(C)nc(NS(=O)(=O)c2ccc(NNc3c4ccccc4nc4c(C(=O)Nc5ccc(S(=O)(=O)Nc6ncccn6)cc5)cccc34)cc2)n1`, the GI50 was 17.4 µM (inactive) with HCT-116; 25.7 µM (inactive) in the test on HL-60; 27.3 µM (inactive) in the test on HOP-92; 27.9 µM (inactive) in the test with HT-29; 71.8 µM (inactive) in the test with Hs-578T; 35 µM (inactive) in the test with IGROV-1. In addition, the GI50 with MCF7 is 52.8 µM (inactive); in the test with Malme-3M it was 26.7 µM (inactive); with NCI-H226 it was 22.5 µM (inactive); with NCI/ADR-RES, > 100 µM (inactive); in the test on OVCAR-3, 19.2 µM (inactive); in the test on OVCAR-4, 33.7 µM (inactive). The GI50 in the test with OVCAR-5 was 16.4 µM (inactive); with OVCAR-8 it was 26.2 µM (inactive); with SF-295, 32.4 µM (inactive); in the test on SK-MEL-28, 29.5 µM (inactive); in the test with SN12C, 20.4 µM (inactive); in the test with TK-10, 50.9 µM (inactive). The GI50 in the test with UACC-257 was 33.7 µM (inactive).
Take `C=C1CC[C@@]2(C)[C@@H]([C@@H]1C)[C@H]1CC[C@@H]3[C@@]4(C)CC[C@H](O)C(C)(C)[C@@H]4CC[C@@]3(C)[C@]1(C)C[C@@H]2O`: the GI50 with HCT-116 was 2.99 µM (inactive); in the test on HL-60, 1.53 µM (inactive); in the test on HOP-92 it was 1.99 µM (inactive); with HT-29 it was 3.9 µM (inactive); in the test on Hs-578T, 2.69 µM (inactive); in the test with IGROV-1, 2 µM (inactive). The GI50 with MCF7 is 2.13 µM (inactive); in the test on Malme-3M it was 3.25 µM (inactive); in the test on NCI-H226, 5 µM (inactive); with NCI/ADR-RES, 3.27 µM (inactive); in the test on OVCAR-3, 2.37 µM (inactive); with OVCAR-4, 2.49 µM (inactive). Also, the GI50 with OVCAR-5 was 4.25 µM (inactive); with OVCAR-8, 1.85 µM (inactive); in the test on SF-295 it was 3.49 µM (inactive); in the test with SK-MEL-28, 4.12 µM (inactive); with SN12C, 2.52 µM (inactive); in the test with TK-10, 5.62 µM (inactive). The GI50 in the test on UACC-257 was 8.07 µM (inactive).
Consider `CC(C)C(NCc1c(O)ccc2c(-c3ccccc3)cc(=O)oc12)C(=O)O` (stereo not drawn), for which the GI50 with HCT-116, in the test with HL-60, with HOP-92, with HT-29, in the test on Hs-578T and with IGROV-1 was > 100 µM (inactive) each time. For the same molecule, the GI50 in the test with MCF7, in the test with Malme-3M, in the test with NCI-H226, in the test with NCI/ADR-RES, in the test with OVCAR-3 and in the test on OVCAR-4 was > 100 µM (inactive) throughout. Moreover, the GI50 in the test with OVCAR-5, in the test on OVCAR-8, in the test with SF-295, with SK-MEL-28, in the test with SN12C and in the test with TK-10 was > 100 µM (inactive) each time. Further, the GI50 with UACC-257 is > 100 µM (inactive).
